Here are results for eleven compounds from EP4534528A1, “NOVEL SULFANONE DERIVATIVE OR PHARMACEUTICALLY ACCEPTABLE SALT THEREOF, AND USE THEREOF” (Korea Institute of Science and Technology, priority 2022, dated 2023).

One data set can be described thus: in vitro. In kind it is in vitro ADME, Human. Particulars: for remaining at 0.5 h, 1 µM: human, pH 6.4, liver microsomes 0.5 mg/mL, 30 minutes at 37°C.
Data set [1] can be described thus: Metabolic stability in liver microsomes. In kind it is in vitro ADME. As to conditions: mouse, pH 6.4, 30 minutes at 37°C. For orientation: Liver microsomes are vesicles of endoplasmic reticulum, rich in cytochrome P450 enzymes.
In the next data set the test system is Nrf2. Kind of data set: Nrf2 functional cell-based assay (DiscoveRx). As to conditions: U2OS cells, incubated for 6 hours, luminescence; read-out: Nrf2 activation EC50.
The next data set relates to NO (nitric oxide). The data set can be described thus: NO (nitric oxide) inhibitory activity in LPS-treated BV-2 microglial cells. Format: cell-based, mouse. As to conditions: for activity at 10 µM / activity at 0.1 µM / activity at 1 µM: Mus musculus; for activity at 10 µM: read-out: Amount of NO (% of control) 10 µM; for activity at 0.1 µM: read-out: Amount of NO (% of control) 0.1 µM; for activity at 1 µM: read-out: Amount of NO (% of control) 1 µM.

A short description of data set [2]: Metabolic stability in liver microsomes. Particulars: rat, pH 6.4, 30 minutes at 37°C. Format: in vitro ADME. On the procedure: Then, an NADPH regeneration system solution was added thereto and the mixed solution was incubated at 37°C for 30 minutes. […]
In a further data set the test system is U2OS cells. As to conditions: known from the literature; cited from earlier work.
For data set [3] the following is noted: background statement; cited from earlier work.
The conditions of data set [4]: not told; cited from earlier work.
[5] abbreviates: 10 µM compound, BV-2 cells, LPS 1 µg/ml, 24 hours.

pEC50: −log10 of the molar value. Structures can show the parent of a compound that is named as a salt. Where two headings read alike, the source gives them in different places.

Take `O=S(=O)(/C=C/c1ncccc1Cl)c1ccccc1Cl`: the share remaining at 0.5 h, 1 µM in “in vitro” is 66%; in data set [1] it was 4.5%.

Consider “(E)-(2-chlorophenyl)(imino)(2-(2,4,6-trichloropyrimidin-5-yl)vinyl)-λ^6-sulfanone [Compound 1-14]”, for which the pEC50 in the data set with Nrf2 was 5.48. Also, the “Amount of NO (% of control) 10 µM” value in the data set with NO (nitric oxide) (setting [5]) was < 3.00 % of control.

Turning to `COC(=O)/C=C/C(=O)OC` [DMF, Dimethyl fumarate], in the data set with Nrf2, the negative logarithm of the EC50 (pEC50) was 5.36.

Turning to `COc1cccc(S(=N)(=O)/C=C/c2ncccc2F)c1` (stereo not drawn) [Compound 1-7, (E)-(2-(3-fluoropyridin-2-yl)vinyl)(imino)(3-methoxyphenyl)-λ^6-sulfanone], in the data set with NO (nitric oxide) (BV-2, 24 h), the activity at 10 µM worked out at 1.48%.

For `O=S(=O)(/C=C/c1ncccc1Cl)c1ccccc1F`, the figures for the amount remaining at 0.5 h, 1 µM (in the data set “in vitro”; in data set [1]; in data set [2]) were 72%, 19% and 23%, respectively.

In the case of `COc1ccccc1S(=O)(/C=C/c1ccccc1Cl)=NC#N` (stereo not drawn) [Compound 1-57, (E)-N-((2-chlorostyryl)(2-methoxyphenyl)(oxo)-λ^6-sulfanylidene)cyanamide], the negative logarithm of the EC50 (pEC50) in the data set with Nrf2 was 7.12.

For `C[Si](C)(C)N=S(=O)(/C=C/c1ccccc1Cl)c1ccncc1F` (stereo not drawn) [Compound 1-46, (E)-(2-chlorostyryl)(3-fluoropyridin-4-yl)((trimethylsilyl)imino)-λ^6-sulfanone], the pEC50 with Nrf2 is 6.92.

`C[S+]([O-])CCCCN=C=S` (stereo not drawn) [Sulforaphane, 1-isothiocyanato-4-methylsulfinylbutane]: the activity at 0.1 µM in the data set with NO (nitric oxide) (0.1 µM compound, BV-2 cells, LPS 1 µg/ml, 24 hours) was determined as 107%. Besides, in the data set on NO (nitric oxide) (1 µM compound, BV-2 cells, LPS 1 µg/ml, 24 hours), the activity at 1 µM is 79.9%. Also, the activity at 10 µM in the data set with NO (nitric oxide) (setting [5]) stood at 14.9%. Also, the “concentrations at which high toxicity is exhibited” value with U2OS cells is listed as at least 5 µM. The “time until it disappears when administered to the body” value in data set [3] is at most 1 h. The blood-brain barrier permeability result in data set [4] was “very low”.

On to `COc1ccc(S(=N)(=O)/C=C/c2ccccn2)cc1` (stereo not drawn) [Compound 1-2, (E)-imino(4-methoxyphenyl)(2-(pyridin-2-yl)vinyl)-λ^6-sulfanone], for which the “amount of drug remaining after incubation with microsomes (in words)” value in the data set “in vitro” (30 minutes) is “remained at a high concentration”. In addition, the amount remaining at 0.5 h, 1 µM was determined as 76% in the data set “in vitro” and 59% in data set [1].

Consider `N=S(=O)(/C=C/c1ncccc1F)c1ccccc1Cl` (stereo not drawn) [Compound 1-3, (E)-(2-chlorophenyl)(2-(3-fluoropyridin-2-yl)vinyl)(imino)-λ^6-sulfanone], for which, in the data set on NO (nitric oxide) (BV-2, 24 h), the activity at 0.1 µM came to 90.9%, the activity at 1 µM was 51.4% and the activity at 10 µM was under 3%.

Regarding `N=S(=O)(/C=C/c1cccnc1)c1ccccc1Cl` (stereo not drawn) [Compound 1-12, (E)-(2-chlorophenyl)(imino)(2-(pyridin-3-yl)vinyl)-λ^6-sulfanone], the activity at 10 µM in the data set on NO (nitric oxide) (setting [5]) was 24.8%.

By share remaining is commonly meant the share of the starting amount still present when the sample was taken. Read a high share remaining as greater stability. By pEC50 is commonly meant the EC50 on a negative log10 scale, so that one unit is a factor of ten.
